The CC50 is the concentration that lowers cell viability or growth by half. Low readings indicate harm at low concentration, high ones better tolerance by the cells.

A value given as a limit tells only on which side of the number the result lay.

Data set [1] deals with VEGF 5'- and 3'-UTR luciferase reporter. The data set can be described thus: VEGF GEMS luciferase reporter (B9 cells, VEGF UTRs) vs control reporter (B12 cells). It counts as cell-based, human. As to the method:
Luciferase assays were conducted using the Bright-Glo assay (Promega, Madison, WI), following the manufacturer’s instructions. The plates were incubated for 5 minutes at room temperature with gentle shaking before determining the level of luciferase activity. For assays done in 96-well plates, luciferase activity was monitored using a Topcount microplate reader (Perkin Elmer, USA). For HTS and assays done in 384-well plates, luciferase activity was determined using a ViewLux microplate reader (Perkin Elmer, USA).
A high throughput screen (HTS) was performed with a stable cell line designated B9 that was generated by transfecting the VEGF GEMS™ vector (Fig 1a) into HEK293 cells. Log phase growing B9 cells were trypsinized and re-suspended in growth medium containing 1x penicillin and streptomycin (Invitrogen) to form a single-cell suspension. Cell counts were determined using a hemocytometer, with cell viability greater than 98% for all assays. B9 cells were seeded (10,000 cells per well) in 384-well plates and incubated with test compound at a final concentration of 7.5 μM in duplicate in a 40 μL reaction. The final concentration of DMSO was 0.5%. A serial dilution (0.078 to 20 μM) of puromycin was included in each plate as positive control for the nonspecific inhibition of translation. After incubation for 20 hours at 37°C, 5% CO2, 20 μL of Bright-Glo substrate (Promega) were added to each well. Plates were incubated for 5 minutes at room temperature with gentle shaking. Firefly luciferase luminescence was measured on the ViewLux (PerkinElmer). Data were loaded into ActivityBase (IDBS) for analysis. The HTS plate configuration is shown in S1 Fig. The threshold for hits was set at mean + 3x SD (standard deviation). Statistical robustness was assessed by Z’-factor, defined as 1-((3 x (SDblank-control + SDDMSO-control)/(Meanblank-control + MeanDMSO-control)), where the blank control represents assay background and the DMSO control represents total signal from the DMSO treated samples.
To address the possibility that the compounds identified in the screen function by modulating general transcription processes rather than targeting processes regulated by the 5’- and/or 3’-UTRs of VEGF mRNA, we generated an additional cell line, designated as B12 that harbors the luciferase reporter flanked with control UTRs from the plasmid pCDNA3.1 vector instead of those from VEGF mRNA. Compounds that reduce luciferase activity in both cell lines are considered to be general inhibitors of transcription or translation. Therefore, those compounds that inhibit luciferase expression in B9 but not in B12 cells act through the 5’- and/or 3’-UTRs of the VEGF transcript. A subset of the compounds selective for the VEGF UTRs was identified.
A general note: Reporter assays use an easily measured gene product as a stand-in for the process of interest.

The subject of data set [2] is VEGF mRNA UTRs reporter. The data set can be described thus: UTR-selectivity luciferase reporter cell lines (VEGF vs HIF-1α, DPPIV UTRs). Conditions: HEK 293 luciferase reporter stable cell lines. It counts as cell-based, human. An excerpt: Selective inhibition by PTC-510 of reporter gene expression mediated by VEGF mRNA UTRs. All luciferase reporter stable cell lines used in this study were generated from HEK 293 cells transfected with the luciferase reporter gene flanked with the UTRs derived from each target gene. HIF-1α: hypoxia Inducible Factor 1 alpha; DPPIV: dipeptidyl peptidase IV. (DOC) Click here for additional data file.
[picture] Selective inhibition by PTC-510 of reporter gene expression mediated by VEGF mRNA UTRs. All luciferase reporter stable cell lines used in this study were generated from HEK 293 cells transfected with the luciferase reporter gene flanked with the UTRs derived from each target gene. HIF-1α: hypoxia Inducible Factor 1 alpha; DPPIV: dipeptidyl peptidase IV.

Data set [3] can be described thus: Cytotoxicity, CellTiter-Glo, HeLa cells. It counts as cell-based. To be noted: human. As to the method: The cytotoxicity of compounds was determined in peripheral blood mononuclear cells (PBMCs) and primary human foreskin fibroblasts, both purchased frozen from AllCells, Inc, CA. Cells were incubated with test compound at various concentrations in triplicate for a period of 3 days in 96-well plates. The cytotoxicity or inhibition of cell proliferation was determined using a standard CellTiter-Glo® Luminescent Cell Viability Assay (Promega, Madison, WI) that measures total cellular adenosine triphosphate (ATP) concentration as a function of cell viability. In addition, cytotoxicity assays were also performed in HeLa cells in parallel with VEGF ELISA to ensure that the inhibition of VEGF production in HeLa cells was not due to cytotoxicity.
The IC50 values for compounds that inhibited VEGF production were determined next. A seven-point dose-response analysis was performed for each of the 137 compounds. In parallel, a dose-response cytotoxicity assay was performed to determine the CC50 (the concentration resulting in 50% cellular growth inhibition or cytotoxicity) under the same conditions as VEGF ELISA to determine whether hypoxia-induced VEGF inhibition was due to cytotoxicity.
A general note: ATP-based viability assays read luminescence as a measure of living cells.

The subject of data set [4] is hVEGF. The data set can be described thus: HT1080 xenograft pharmacodynamic model, intratumor hVEGF. It counts as in vivo, mouse (human tumor xenograft). To be noted: twice per day for 7 days. As for the experimental part:
Log phase growing tumor cells (5–10 x 10^6 cells/mouse, depending on the cell line) were implanted subcutaneously in athymic nude mice. When the average tumor size reached the indicated size, mice were randomly divided into groups and administered vehicle (5% DMSO/ 95% PEG-300) or test compounds by oral gavage. Tumor volumes were measured twice per week using digital calipers and body weights once per week. Tumor volume was determined according to the formula: L x (W)^2/2, where L is the longest dimension and W is the shortest dimension.
At the end of experiments, the tumors were excised from mice and homogenized on ice using a Powergen homogenizer fitted with Omni-Tip disposable/reusable probes (both from Fisher Scientific) in Tris-HCl buffer containing a cocktail of proteinase inhibitors. Intra-tumor human VEGF levels, as well as levels of other growth factors or proteins, were subsequently measured using commercially available ELISA kits (R&D Systems). Protein concentrations of the homogenates were determined using the Bradford protein assay (Bio-Rad) and intratumor growth factor levels were normalized to the total protein concentration.
Among the VEGF UTR-selective compounds identified, PTC-858 is a potent hit with adequate pharmaceutical properties (data not shown). These pharmaceutical properties enabled the testing of this compound in a human xenograft pharmacodynamic model in mice to measure modulation of intratumor VEGF levels. Established human HT1080 fibrosarcoma tumors grown as a xenograft in nude mice were treated with PTC-858 orally at a dose of 200 mg/kg, twice per day for 7 days. […] In addition, tumor growth was reduced by 25% after only 7 days of treatment.

Take `COc1ccc(C2c3[nH]c4ccc(Br)cc4c3CC3C(=O)N(C4CCCCC4)C(=S)N32)cc1.O=C(O)C(F)(F)F` (stereo not drawn) [PTC-510, 9-bromo-2-cyclohexyl-5-(4-methoxyphenyl)-3-thioxo-2,3,5,6,11,11a-hexahydro-1H-imidazo[1’,5’:1,6]pyrido[3,4-b]indol-1-one trifluoroacetate]: the “VEGF UTR specificity” value in data set [1] was “yes”. Besides, in data set [2], the “VEGF UTR selectivity compared to UTRs of HIF-1α and DPPIV” value was “VEGF UTR selective”. The molecule also registered a CC50 at 48 hr in data set [3] (48 hr) of 200 nM. Moreover, the “effect on intratumor VEGF in HT1080 tumors” value in data set [4] (50 mg/kg, oral) is on record as “selectively inhibited production of intratumor VEGF”.

For `Brc1ccc2[nH]c3c(c2c1)CCCC3n1cccc1` (stereo not drawn) [PTC-858, 6-bromo-1-(1H-pyrrol-1-yl)-2,3,4,9-tetrahydro-1H-carbazole], the “selectivity, VEGF reporter (B9) vs control reporter B12 cells” value in data set [1] (HEK293 stable luciferase reporter lines) is “greater than 2 log”. Also, the CC50 at 72 hours in data set [3] (72 hours, CellTiter-Glo) turned out to be 1700 nM. Also, the selectivity ratio in data set [3] (CC50 vs VEGF ELISA IC50, read-out: selective index (CC50/IC50)) is above 200. The “change of intratumor human VEGF protein levels vs vehicle” value in data set [4] (HT1080 xenograft, 200 mg/kg orally) is “significant reduction of intratumor human VEGF protein levels”. Also, in data set [4] (HT1080 xenograft, 200 mg/kg, oral, mean +/- SD, n = 10), the “intratumor hVEGF” value is listed as 127.5 ± 108.6 pg/mg total tumor proteins.

The values above are taken from paper PMC5161367, “Discovery of Novel Small Molecule Inhibitors of VEGF Expression in Tumor Cells Using a Cell-Based High Throughput Screening Platform” (PLoS ONE, 2016).
